The record followed here is patent publication US20240316038A1, “APOL1 INHIBITORS AND METHODS OF USE” (Maze Therapeutics, Inc., priority 2021, published 2024).

Usually AC50 stands for the concentration giving half of the maximal activity seen. For orientation: EC50 means the concentration needed to bring the measured effect to its halfway point.

Experiment [1] deals with T1, APOL1 G2 (Homo sapiens, UniProt O14791, DEL388-389).
T1 construct: expressed in transfected cells; host or cells: HEK293 T-REx clonal lines: HEK T-REx/GCaMP6f/APOL1 G2 K6.3 in A1, HEK293/T-REx APOL1 G2/clone #2 in A2
T1 sequence (O14791 with tags, fused parts or gaps DEL388-389): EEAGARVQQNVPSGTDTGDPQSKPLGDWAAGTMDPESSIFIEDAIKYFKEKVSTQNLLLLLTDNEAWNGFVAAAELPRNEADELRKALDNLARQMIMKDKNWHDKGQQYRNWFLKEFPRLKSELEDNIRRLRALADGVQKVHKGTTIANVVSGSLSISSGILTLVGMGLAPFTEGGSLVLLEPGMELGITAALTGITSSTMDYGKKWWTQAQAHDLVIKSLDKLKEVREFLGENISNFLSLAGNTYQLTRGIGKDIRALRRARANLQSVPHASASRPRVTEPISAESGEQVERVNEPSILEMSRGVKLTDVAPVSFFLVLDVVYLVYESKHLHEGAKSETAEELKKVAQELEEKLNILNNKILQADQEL
The experiment in a line: APOL1 calcium transport inhibition assay (GCaMP6f calcium influx, FLIPR) in HEK T-REx/GCaMP6f/APOL1 G2 K6.3 cells. It is filed as cell-based. The note with it: inhibition of APOL1-mediated calcium influx; geometric mean of at least 2 assay runs, † = single assay run (technical duplicate). The protocol:
A HEK293 clonal cell line was generated to stably express GCaMP6f, a genetically encoded calcium indicator, and inducibly express APOL1 G2 (HEK T-REx/GCaMP6f/APOL1 G2 K6.3). Cells were maintained in the following standard complete medium: DMEM with 4.5 g/L glucose and sodium pyruvate (BioWhittaker, Lonza, BE12-614F), supplemented with 10% FBS Performance Plus (Gibco, 16000044), 1% penicillin-streptomycin (BioWhittaker, DE17-602E), 2 mM ultraglutamine-1 (BioWhittaker cat. BE 17-605/U1), 50 μg/mL Zeocin (InvivoGen, ant-zn), 2.5 μg/mL Blasticidin (InvivoGen, ant-bl-5), and 25 μg/mL Hygromycin (InvivoGen, ant-hg). Standard propagation conditions consisted of plating 9×10^6, 4×10^6, 2×10^6 cells in a T225 flasks to be processed after 2, 3, or 4 days, respectively.
A source plate was generated containing 20 serially diluted compounds in DMSO (duplicate 8-point dose response). Next, 0.8 μL of compounds were transferred from the source plate to a destination plate prefilled with 79.2 μL of Ca^2+ free Tyrode's buffer (130 mM NaCl, 5 mM KCl, 1 mM MgCl2, 5 mM NaHCO3, 20 mM HEPES at pH 7.4). The destination plate was placed on a plate shaker (5 seconds at 2000 rpm) to mix. […] All transfer and mixing steps were conducted with an CyBi®-Well dispenser.
Cells were split by gently washing with DPBS (Euroclone, ECB4004L), followed by a 5-minute incubation (humidified, 37° C. with 5% CO2) with trypsin-EDTA solution (Euroclone, ECB3052D). Detached cells were diluted with standard complete medium without selective agents, counted, and plated in a 384 MTP microplate (GR4332CPL, Twin Helix) (10,000 cells/well in 25 μl/well) using a MATRIX WellMate dispenser. Plates were placed into a humidified incubator (37° C. with 5% CO2) overnight. The following day, 20 μL of doxycycline (Sigma, D9891) at 20 ng/mL in standard complete medium was added to cells with a CyBi @Drop dispenser to induce APOL1 G2 expression. After a 6-hour incubation (humidified, 37° C. with 5% CO2), cells were washed 3 times with Ca^2+ free Tyrode's Buffer (130 mM NaCl, 5 mM KCl, 1 mM MgCl2, 5 mM NaHCO3, 20 mM HEPES at pH 7.4) using a BIOTEK Microplate washer, such that 10 μL of buffer remained in each well after the final wash. Assay plates were then stored at room temperature for 10 minutes. Next, 10 μL of diluted compounds were transferred to the assay plate from the 2× compound plate using a CyBi®-Well dispenser. Compound incubation was then carried out at room temperature for 10 minutes. The assay plate was transferred to the […] and 20 μL of 10 mM Ca^2+ (final concentration=5 mM) Tyrode's buffer was injected.
Table B1 below summarizes the data from this experiment. Unless otherwise specified, AC50 and values are reported as the geometric mean of at least 2 assay runs on separate days. Each run represents the average of a technical replicate, where each compound was assayed twice in the same plate. A superscript † symbol indicates a value from the average of a technical replicate from a single assay run, where each compound was assayed twice in the same plate.
The AC50 values in Table B1 below reflect the compound's ability to prevent calcium influx by inhibiting APOL1. […] Compounds in Table B1 are referred to by the corresponding Compound Number in Table 1, which is also referred to in the synthetic examples. When one or more of the numbered compounds are identified by stereochemistry (for example, (R)- or (S)—), the specific stereoisomer for which data is provided in Table B1 may be identified by the elution order of such compound as described in the synthetic examples. To illustrate, Compound 2 is the first-eluting enantiomer of step 4 of Example 1 and Compound 3 is the second-eluting enantiomer of step 4 of Example 1. Further, by way of illustration, Compound 27 is the first-eluting enantiomeric mixture in step 4 of Example 7 and Compound 28 is the second-eluting enantiomeric mixture in step 4 of Example 7. […]

The target in experiment [2] is T1, APOL1 G2. Nature of the experiment: Rescue of HEK293 cell death caused by overexpression of APOL1 (CellTiter-Glo luminescence), HEK293/T-REx APOL1 G2/clone #2. It counts as cell-based. As to conditions: reversal of cell death caused by overexpression of APOL1; geometric mean of at least 2 assay runs, † = single assay run (technical duplicate). The protocol: A HEK293 clonal cell line overexpressing APOL1 G2 (HEK293/T-REx APOL1 G2/clone #2) was maintained in 1×DMEM-GlutaMax (Gibco, 10569-010) media with 10% tetracycline-free FBS (Takara Bio USA, 631101), 5 μg/mL Blasticidin (Gibco, A1113903), and 100 μg/mL Zeocin (Invitrogen, R25001) in T75 flasks. In preparation for the assay, this media was aspirated and 2 mL of prewarmed TrypLE Express (Gibco, 12605-010) was added to a flask to detach cells. The flask was then incubated (humidified, 37° C. with 5% CO2) for 3-5 minutes. Afterwards, 8 mL of prewarmed cell assay media (lx DMEM-GlutaMax media with 10% tetracycline-free FBS) was added to the trypsinized cells. The suspension was gently mixed, and cells were counted using a Countess Cell Counting Chamber (Invitrogen). The suspension was diluted using cell assay media to generate a working stock solution (166,667 cells/mL). Using a MultiDrop Combi (Thermo Electron Corp), 30 μL (final cell density=5,000 cells/well) of the working stock solution was dispensed into each well of white 384-well assay ready plates (Nunc™, 164610) containing 6 ng/mL doxycycline, to induce APOL1 expression, and compound. All compounds were plated in a duplicate 8-point dilution series that consisted of 3-fold stepwise dilutions (0.5% DMSO final). Assay plates were incubated (humidified, 37° C. with 5% CO2) for 17 hours. After the incubation, the plates were equilibrated at room temperature for 1 hour. Next, 15 μl of CellTiter-Glo® reagent (Promega, G7570) was added to each well using a MultiDrop Combi. Plates were placed on an orbital shaker (500 rpm) for 5 minutes to induce cell lysis and then incubated at room temperature for 10 minutes. Luminescence was measured on an Envision plate reader. Collaborative Drug Discovery software was utilized for graphing data. Plots were generated using a four parameter logistic curve fit.
Table B2 below provides the results from this experiment. Unless otherwise specified, EC50 values are reported as the geometric mean of at least 2 assay runs on separate days. Each run represents the average of a technical replicate, where each compound was assayed twice in the same plate. A superscript t symbol indicates a value from the average of a technical replicate from a single assay run, where each compound was assayed twice in the same plate. Compounds in Table B2 are referred to by the corresponding Compound Number in Table 1, which is also referred to in the synthetic examples. When one or more of the numbered compounds are identified by stereochemistry (for example, (R)- or (S)—), the specific stereoisomer for which data is provided in Table B2 may be identified by the elution order of such compound as described in the synthetic examples. To illustrate, Compound 2 is the first-eluting enantiomer of step 4 of Example 1 and Compound 3 is the second-eluting enantiomer of step 4 of Example 1. Further, by way of illustration, Compound 27 is the first-eluting enantiomeric mixture in step 4 of Example 7 and Compound 28 is the second-eluting enantiomeric mixture in step 4 of Example 7. Then, Compound 27 is separated into Compound 29 (the first-eluting enantiomer) and Compound 30 (the second-eluting enantiomer) in Example 8, and Compound 28 is separated into Compound 31 (the first-eluting enantiomer) and Compound 32 (the second-eluting enantiomer) in Example 8. Absolute stereochemistry of such compounds may be identified by methods known in the art.
Rescue EC50 values reported in Table B2 below represent the half-maximal effective concentration for reversal of cell death caused by overexpression of APOL1.

Each structure is given as a SMILES string.

Regarding `CS(=O)(=O)c1ccc(OCC2(O)CCCN(CCc3cccc(Cl)c3)C2)cc1` (single isomer, unassigned) [Compound 6, (S) or (R) -1-(3-chlorophenethyl)-3-((4-(methylsulfonyl)phenoxy)methyl) piperidin-3-ol], in experiment [1], the AC50 is 942 nM. In addition, the 50% effective concentration (EC50) in experiment [2] was 495 nM.
The matching figures for `CN(c1ccc(OCC2CCCN(CCc3cccc(Cl)c3)C2)cc1)S(C)(=O)=O` (single isomer, unassigned) [Compound 8, (S) or (R)—N-(4-((1-(3-chlorophenethyl)piperidin-3-yl)methoxy)phenyl)-N-methylmethanesulfonamide]: 266 nM and 132 nM.
The matching figures for `CN(c1ccc(OCC2CCCN(CCc3cccc(Cl)c3)C2)cc1)S(C)(=O)=O` (single isomer, unassigned) [Compound 9, (R) or (S)—N-(4-((1-(3-chlorophenethyl)piperidin-3-yl)methoxy)phenyl)-N-methylmethanesulfonamide]: 151 nM and 263 nM.
The matching figures for `CN(c1ccc(OCC2CN(CCc3cccc(Cl)c3)CCCO2)cc1)S(C)(=O)=O` (single isomer, unassigned) [Compound 11, (R) or (S)-N-(4-((4-(3-chlorophenethyl)-1,4-oxazepan-2-yl)methoxy)phenyl)-N-methylmethane-sulfonamide]: 1190 nM and 1000 nM.
With `CN(c1ccc(OCC2CN(CCc3cccc(Cl)c3)CCCO2)cc1)S(C)(=O)=O` (single isomer, unassigned) [Compound 12, (S) or (R)-N-(4-((4-(3-chlorophenethyl)-1,4-oxazepan-2-yl)methoxy)phenyl)-N-methylmethane-sulfonamide], the half-maximal activity concentration (AC50) in experiment [1] was found to be 2390 nM. The 50% effective concentration (EC50) in experiment [2] is 3000 nM.
The matching figures for `CS(=O)(=O)c1ccc(OC[C@H]2CCCN(CC(O)c3cccc(Cl)c3)C2)cc1` (single isomer, unassigned) [Compound 18, (R) or (S)-1-(3-chlorophenyl)-2-((S)-3-((4-(methylsulfonyl)phenoxy)methyl)piperidin-1-yl)ethan-1-ol]: 5730 nM and 6320 nM.
The corresponding values for `CS(=O)(=O)c1ccc(OC[C@H]2CCCN(CC(O)c3cccc(Cl)c3)C2)cc1` (single isomer, unassigned) [Compound 19, (S) or (R)-1-(3-chlorophenyl)-2-((S)-3-((4-(methylsulfonyl)phenoxy)methyl)piperidin-1-yl)ethan-1-ol] are 480 nM and 374 nM.
For `CS(=O)(=O)c1ccc(OC[C@@H]2CCCN(CC(O)c3cccc(Cl)c3)C2)cc1` (single isomer, unassigned) [Compound 21, (R) or (S)-1-(3-chlorophenyl)-2-((R)-3-((4-(methylsulfonyl)phenoxy)methyl)piperidin-1-yl)ethanol], in experiment [1], the concentration at half-maximal activity (AC50) was found to be 623 nM. Further, in experiment [2], the EC50 came out at 1020 nM.
The corresponding values for `CS(=O)(=O)c1ccc(OC[C@@H]2CCCN(CC(O)c3cccc(Cl)c3)C2)cc1` (single isomer, unassigned) [Compound 22, (S) or (R)-1-(3-chlorophenyl)-2-((R)-3-((4-(methylsulfonyl)phenoxy)methyl)piperidin-1-yl)ethanol] are 6410 nM and 6590 nM.
The matching figures for `COC(CN1CCC[C@H](COc2ccc(S(C)(=O)=O)cc2)C1)c1cccc(Cl)c1` (single isomer, unassigned) [Compound 23, (S)-1-((R)-2-(3-chlorophenyl)-2-methoxyethyl)-3-((4-(methylsulfonyl)phenoxy)methyl)piperidine or (S)-1-((S)-2-(3-chlorophenyl)-2-methoxyethyl)-3-((4-(methylsulfonyl)phenoxy)methyl)piperidine]: 640 nM and 677 nM.
